The record followed here is ChEMBL document CHEMBL1157351, “Total synthesis and evaluation of C25-benzyloxyepothilone C for tubulin assembly and cytotoxicity against MCF-7 breast cancer cells” (Bioorg Med Chem Lett, 2008).

Usually EC50 stands for the concentration that produces a half-maximal response. A lower EC50 goes with higher potency in that assay.

The source made the active and inactive calls. The calls are words filed in the database; no cut-off is given here.

A short description of assay [1]: Inhibition of microtubule assembly at 100 uM.
A short description of assay [2]: Inhibition of microtubule assembly.
Assay [3] has as its system MCF7. Put plainly: Cytotoxicity against human MCF7 cells. The assay is classed as functional.
Assay [4] concerns MCF7. Description: Ratio of ED50 for drug to ED50 for epothilone B against human MCF7 cells. In kind it is functional.

For `C/C(=C\c1csc(C)n1)[C@@H]1C/C=C\CCC[C@H](COCc2ccccc2)C(O)[C@@H](C)C(=O)C(C)(C)C(O)CC(=O)O1` (some centres undefined), the result in assay [1] was inactive. In assay [2], this compound came in with an EC50 of 2500 nM. Also, in assay [3], the Activity was determined as 2.1 µM. Also, the “Ratio ED50” value in assay [4] is listed as 1050.
